Results published in the supplement of paper PMC11616607.

Tests used:
Assay in all cases: drug sensitivity score (DSS) from 5-point dose-response viability curve (DSS (area-under-curve based score)); higher = more sensitive (stronger growth inhibition or killing); extreme values may be limits of the assay
Conditions in all cases: exposure time: 72 h; concentration range: 5 concentrations over 10,000-fold range
Kuramochi = tested on: Kuramochi
Method in brief: (§1)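 Drug sensitivity scores were calculated in Breeze software for each cell line and drug pair; higher scores indicate more sensitivity. A score of zero indicates no response. The underlying assay used 384-well plates: drugs were placed by an Echo 550 acoustic dispenser at five concentrations spanning a 10,000-fold range, 1,500 ovarian cancer or normal ovarian cells were added per well, and cells were kept 3 days at 37°C, 5% CO2. Viability was then measured with CellTiter-Glo luminescence on a PHERAstar FS.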

JHOS2 = tested on: JHOS2
Method in brief: as §1

OVCAR8 = tested on: OVCAR8
Method in brief: as §1

HOSE1C = tested on: HOSE1C
Method in brief: as §1

CAOV3 = tested on: CAOV3
Method in brief: as §1

COV318 = tested on: COV318
Method in brief: as §1

OVCAR5 = tested on: OVCAR5
Method in brief: as §1

HOSE2C = tested on: HOSE2C
Method in brief: as §1

OV90 = tested on: OV90
Method in brief: as §1

COV362 = tested on: COV362
Method in brief: as §1

Ovsaho = tested on: Ovsaho
Method in brief: as §1

OVCAR4 = tested on: OVCAR4
Method in brief: as §1

Structure (SMILES) | drug sensitivity score (Kuramochi) | drug sensitivity score (JHOS2) | drug sensitivity score (OVCAR8) | drug sensitivity score (HOSE1C) | drug sensitivity score (CAOV3) | drug sensitivity score (COV318) | drug sensitivity score (OVCAR5) | drug sensitivity score (HOSE2C) | drug sensitivity score (OV90) | drug sensitivity score (COV362) | drug sensitivity score (Ovsaho) | drug sensitivity score (OVCAR4)
CN1CCN(c2ccc3nc(-c4c(N)c5c(F)cccc5[nH]c4=O)[nH]c3c2)CC1 [Dovitinib] | 0 | 0 | 0 | 0 | 0 | 0 | 0 | 0 | 0 | 0 | 0 | 0.6
COc1cccc2c1C(=O)c1c(O)c3c(c(O)c1C2=O)C[C@@](O)(C(=O)CO)C[C@@H]3O[C@H]1C[C@H](N)[C@H](O)[C@H](C)O1 [Doxorubicin] | 6.2 | 5.9 | 8.8 | 0 | 8.6 | 3.6 | 4.6 | 0 | 6.7 | 2.3 | 7.6 | 3.5
C[C@H](Nc1ncnc2nc[nH]c12)c1cc2cccc(Cl)c2c(=O)n1-c1ccccc1 [Duvelisib] | 2 | 0 | 0 | 0.2 | 0.1 | 0 | 0 | 0 | 0 | 0 | 1.4 | 0.7
Cc1ccc(NS(=O)(=O)c2cccc(C#N)c2)c2[nH]cc(C#N)c12 [E7820] | 0.8 | 10.7 | 3.3 | 7.3 | 4.8 | 2.8 | 3.3 | 5 | 2.7 | 0 | 1.2 | 4.4
Cc1cc(Nc2cc(N3CCN(C)CC3)nc(/C=C/c3ccccc3)n2)n[nH]1 [ENMD-2076] | 8.5 | 5.1 | 8 | 7.7 | 10.3 | 4.9 | 9.6 | 10.3 | 8.4 | 6.3 | 8.8 | 5.8
Cc1cc(C)c(CNC(=O)c2cc(-c3ccc(CN4CCOCC4)cc3)cc3c2cnn3C2CCCC2)c(=O)[nH]1 [EPZ-5687] | 0 | 0 | 0 | 0 | 0 | 0 | 1.8 | 0 | 0 | 1.1 | 0 | 0
NC(=O)/C(=C/n1cnc(-c2cc(C(F)(F)F)cc(C(F)(F)F)c2)n1)c1cncnc1 [Eltanexor] | 10.9 | 19 | 21.5 | 34.6 | 18.9 | 7.5 | 14.8 | 15.7 | 13.2 | 10.9 | 19.3 | 13.7
CC(C)(O)CNc1nc(Nc2ccnc(C(F)(F)F)c2)nc(-c2cccc(C(F)(F)F)n2)n1 [Enasidenib] | 0 | 0 | 0.9 | 0 | 0 | 0 | 0 | 0 | 0 | 1.1 | 0 | 0
COC(=O)N[C@@H](C)CNc1nccc(-c2cn(C(C)C)nc2-c2cc(Cl)cc(NS(C)(=O)=O)c2F)n1 [Encorafenib] | 0 | 0.1 | 0 | 0 | 0.3 | 0 | 0 | 0.5 | 5.6 | 0 | 0.1 | 0
C[C@@H]1CN(C(=O)c2ccc(NC(=O)c3cc(O[C@H](C)c4c(Cl)ccc(F)c4Cl)c(N)nn3)cc2)C[C@H](C)N1 [Ensartinib] | 0 | 0 | 0 | 0.5 | 1.5 | 0 | 1.8 | 1.9 | 0.1 | 0 | 0 | 0
Nc1ccccc1NC(=O)c1ccc(CNC(=O)OCc2cccnc2)cc1 [Entinostat] | 3.2 | 4.7 | 9.3 | 17.3 | 5.5 | 4.3 | 9.9 | 11.8 | 7.4 | 0 | 2.4 | 4.3
c1cn2cc(-c3ccc4cn[nH]c4c3)nc(Nc3ccc(N4CCOCC4)cc3)c2n1 [Entospletinib] | 0 | 0.1 | 1.7 | 0 | 0 | 0 | 1.3 | 0 | 0 | 0 | 0 | 0
CN1CCN(c2ccc(C(=O)Nc3n[nH]c4ccc(Cc5cc(F)cc(F)c5)cc34)c(NC3CCOCC3)c2)CC1 [Entrectinib] | 0 | 0 | 0 | 0.1 | 0.6 | 0 | 1 | 0 | 0 | 0.1 | 1.5 | 1
